From US20250197359A1, “CANNABINOID RECEPTOR MODULATING COMPOUNDS” (The U.S.A., as Represented by the Secretary, Department of …, priority 2022, published 2025)
Like-named read-outs stand apart in the source and are kept apart here.

How the values were obtained:
Caco-2 = Caco-2 permeability (A-B and B-A); assay type: in vitro ADME
[1] = Metabolic stability in mouse liver microsomes; assay type: in vitro ADME
CB1 = CB1 (UniProt P21554); experiment: CB1 radioligand binding assay; set-up: species or system human; settings: read-out: Ki (CB1)
Procedure, shortened: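 Radioligand binding to human CB1 stably expressed in CHO cells and to mouse brain membrane CB1 gave binding constants. For selected compounds, antagonism of CP55940-induced CB1 activation was measured in MPXNomad-CB1 HEK293 cells via cAMPNomad (cAMP) and ArresNomad (β-arrestin) fluorescent biosensors.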

[2] = Metabolic stability in human liver microsomes; assay type: in vitro ADME; settings: for microsomal CLint / half-life: human, liver microsomes; for half-life: read-out: t1/2, min
Brain/CB1 = target: T1, Brain/CB1 (Mus musculus, UniProt P47746); experiment: Functional GTPγS binding, Brain/CB1; assay type: biochemical
T1 construct: from tissue; host or cells: mouse brain membranes

[3] = Caco-2 permeability (A-B and B-A); assay type: in vitro ADME; settings: human; for efflux ratio: Caco-2, quotient of Papp(BA) to Papp(AB)
iNOS = iNOS (Mus musculus, UniProt P29477); experiment: Inducible NOS biochemical assay
Description: Biochemical assay results are presented as the percent inhibition of specific binding or activity (iNOS, CAMP, beta arrestin).

[4] = Caco-2, mean, read-out: Papp (AB), 10^−6 cm/s, Mean
[5] = Caco-2, mean, read-out: Papp (BA), 10^−6 cm/s, Mean
[6] = Caco-2, replicate 1, read-out: Papp (AB), 10^−6 cm/s, 1
[7] = Caco-2, replicate 1, read-out: Papp (BA), 10^−6 cm/s, 1
[8] = Caco-2, replicate 2, read-out: Papp (AB), 10^−6 cm/s, 2
[9] = Caco-2, replicate 2, read-out: Papp (BA), 10^−6 cm/s, 2

T1 sequence (P47746 whole entry): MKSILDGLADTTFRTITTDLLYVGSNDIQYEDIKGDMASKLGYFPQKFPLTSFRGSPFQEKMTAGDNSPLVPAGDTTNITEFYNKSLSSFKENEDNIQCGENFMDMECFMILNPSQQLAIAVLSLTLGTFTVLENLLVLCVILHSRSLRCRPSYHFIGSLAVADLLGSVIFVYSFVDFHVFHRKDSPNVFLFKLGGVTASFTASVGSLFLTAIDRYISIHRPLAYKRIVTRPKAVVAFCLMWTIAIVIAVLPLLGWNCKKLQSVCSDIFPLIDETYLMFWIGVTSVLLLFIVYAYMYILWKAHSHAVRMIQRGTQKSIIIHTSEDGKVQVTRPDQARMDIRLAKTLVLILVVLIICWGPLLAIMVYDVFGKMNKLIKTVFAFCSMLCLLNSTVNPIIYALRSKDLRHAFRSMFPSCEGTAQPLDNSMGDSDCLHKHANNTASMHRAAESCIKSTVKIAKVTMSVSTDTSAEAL

CC(C)C(N/C(=N/S(=O)(=O)c1ccc(C(F)(F)F)cc1)N1CCC(c2ccccc2)C(c2ccc(Cl)cc2)=N1)C(N)=O (single isomer, unassigned) [Compound 29a, (Z)-2-(3-(4-chlorophenyl)-4-phenyl-N′-((4-(trifluoromethyl)phenyl)sulfonyl)-1,4,5,6-tetrahydropyridazine-1-carboximidamido)-3-methylbutanamide]
Papp (AB), 10^−6 cm/s, Mean (Caco-2; mean): 1.4 10^−6 cm/s | Papp (BA), 10^−6 cm/s, Mean (Caco-2; mean): 0.5 10^−6 cm/s | efflux ratio (Caco-2; quotient of Papp(BA) to Papp(AB)): 0.4 | Papp (AB), 10^−6 cm/s, 1 (Caco-2; replicate 1): 1.4 10^−6 cm/s | Papp (BA), 10^−6 cm/s, 1 (Caco-2; replicate 1): 0.5 10^−6 cm/s | Papp (AB), 10^−6 cm/s, 2 (Caco-2; replicate 2): 1.4 10^−6 cm/s | Papp (BA), 10^−6 cm/s, 2 (Caco-2; replicate 2): 0.5 10^−6 cm/s | Clint [1]: 236 µL/min/mg | t1/2, min [1]: 0.118 h | Ki (CB1): 13.2 nM | microsomal CLint [2]: 23 µL/min/mg | half-life [2]: 1.22 h | IC50 (Brain/CB1): 389 nM

CC(C)C(N/C(=N/S(=O)(=O)c1ccc(C(F)(F)F)cc1)N1CCC(c2ccccc2)C(c2ccc(Cl)cc2)=N1)C(N)=O (single isomer, unassigned) [Compound 29b, (Z)-2-(3-(4-chlorophenyl)-4-phenyl-N′-((4-(trifluoromethyl)phenyl)sulfonyl)-1,4,5,6-tetrahydropyridazine-1-carboximidamido)-3-methylbutanamide]
Papp A→B [3, 4]: 0.9 ×10⁻⁶ cm/s | Papp B→A [3, 5]: 0.3 ×10⁻⁶ cm/s | Papp A→B [3, 6]: 0.9 ×10⁻⁶ cm/s | Papp B→A [3, 7]: 0.3 ×10⁻⁶ cm/s | Papp A→B [3, 8]: 1 ×10⁻⁶ cm/s | Papp B→A [3, 9]: 0.4 ×10⁻⁶ cm/s | efflux ratio [3]: 0.4 | Clint [1]: 883 µL/min/mg | t1/2, min [1]: 0.0317 h | Ki (CB1): 2.7 nM | Clint [2]: 15 µL/min/mg | t1/2, min [2]: 1.91 h | IC50 (Brain/CB1): 10 nM

C/C(N)=N\C(=N\S(=O)(=O)c1ccc(Cl)cc1)N1CCC(c2ccccc2)C(c2ccc(Cl)cc2)=N1 (stereo not drawn) [Compound 10a, (Z)—N—((E)-1-aminoethylidene)-3-(4-chlorophenyl)-N′-((4-chlorophenyl)sulfonyl)-4-phenyl-5,6-dihydropyridazine-1 (4H)-carboximidamide]
iNOS inhibition % Response (iNOS): 39% | Ki (CB1): 76 nM | IC50 (Brain/CB1): 138 nM

C/C(N)=N\C(=N\S(=O)(=O)c1ccc(OC(F)(F)F)cc1)N1CCC(c2ccccc2)C(c2ccc(Cl)cc2)=N1 (stereo not drawn) [Compound 10d, (Z)—N—((E)-1-aminoethylidene)-3-(4-chlorophenyl)-4-phenyl-N′-((4-(trifluoromethoxy)phenyl)sulfonyl)-5,6-dihydropyridazine-1 (4H)-carboximidamide]
iNOS inhibition % Response (iNOS): 55% | Ki (CB1): 56.5 nM | IC50 (Brain/CB1): 104 nM

C/C(N)=N\C(=N\S(=O)(=O)c1ccc(C#N)cc1)N1CCC(c2ccccc2)C(c2ccc(Cl)cc2)=N1 (stereo not drawn) [Compound 10e, (Z)—N—((E)-1-aminoethylidene)-3-(4-chlorophenyl)-N′-((4-cyanophenyl)sulfonyl)-4-phenyl-5,6-dihydropyridazine-1 (4H)-carboximidamide]
iNOS inhibition % Response (iNOS): 43% | Ki (CB1): 77 nM | IC50 (Brain/CB1): 338 nM

CC(C)/C(N)=N\C(=N\S(=O)(=O)c1ccc(C(F)(F)F)cc1)N1CCC(c2ccccc2)C(c2ccc(Cl)cc2)=N1 (stereo not drawn) [Compound 10m, (Z)—N—((E)-1-amino-2-methylpropylidene)-3-(4-chlorophenyl)-4-phenyl-N′-((4-(trifluoromethyl)phenyl)sulfonyl)-5,6-dihydropyridazine-1 (4H)-carboximidamide]
iNOS inhibition % Response (iNOS): 55% | Ki (CB1): 23 nM | IC50 (Brain/CB1): 151 nM

N/C(=N\C(=N\S(=O)(=O)c1ccc(C(F)(F)F)cc1)N1CCC(c2ccccc2)C(c2ccc(Cl)cc2)=N1)C1CC1 (stereo not drawn) [Compound 10n, (Z)—N—((Z)-amino (cyclopropyl)methylene)-3-(4-chlorophenyl)-4-phenyl-N′-((4-(trifluoromethyl)phenyl)sulfonyl)-5,6-dihydropyridazine-1 (4H)-carboximidamide]
iNOS inhibition % Response (iNOS): 55% | Ki (CB1): 44 nM | IC50 (Brain/CB1): 211 nM

CC(C)(C)/C(N)=N/C(=N/S(=O)(=O)c1ccc(C(F)(F)F)cc1)N1CCC(c2ccccc2)C(c2ccc(Cl)cc2)=N1 (stereo not drawn) [Compound 10o, (Z)—N—((Z)-1-amino-2,2-dimethylpropylidene)-3-(4-chlorophenyl)-4-phenyl-N′-((4-(trifluoromethyl)phenyl)sulfonyl)-5,6-dihydropyridazine-1 (4H)-carboximidamide]
Papp A→B [3, 4]: 2.2 ×10⁻⁶ cm/s | Papp B→A [3, 5]: 0.5 ×10⁻⁶ cm/s | Papp A→B [3, 6]: 1.9 ×10⁻⁶ cm/s | Papp B→A [3, 7]: 0.5 ×10⁻⁶ cm/s | Papp A→B [3, 8]: 2.4 ×10⁻⁶ cm/s | Papp B→A [3, 9]: 0.5 ×10⁻⁶ cm/s | efflux ratio [3]: 0.2 | iNOS inhibition % Response (iNOS): 66% | t1/2, min [1]: 1.23 h | microsomal CLint ([1]; mouse, liver microsomes): 23 µL/min/mg | half-life ([1]; mouse, liver microsomes, read-out: t1/2, min): 1.13 h | Ki (CB1): 10 nM | t1/2, min [2]: 1.07 h | microsomal CLint [2]: 26 µL/min/mg | half-life [2]: 1.07 h | IC50 (Brain/CB1): 18 nM
